Source: patent EP2505659A1, “Methods for the identification of dioxygenase interacting molecules and for the purification of dioxygenase proteins” (CELLZOME AG, priority 2011, dated 2012)
Where a name gives a salt, the structure may show the parent alone. Read-outs that look alike come from different tables or passages of the source.

Assays:
ALKBH7 = molecular target: T1, ALKBH7 (Homo sapiens, UniProt Q9BT30); assay: Bead competition binding assay, immobilized compound A, K-562, HL-60 and Jurkat nuclear lysates; conditions: 100 µM free compound A, read-out: Fold change versus DMSO control
T1 construct: capturing and identification of dioxygenases from nuclear lysates of three different cell lines; endogenous in cells; host or cells: K-562, HL-60 and Jurkat nuclear lysates
T1 sequence (Q9BT30 21-221): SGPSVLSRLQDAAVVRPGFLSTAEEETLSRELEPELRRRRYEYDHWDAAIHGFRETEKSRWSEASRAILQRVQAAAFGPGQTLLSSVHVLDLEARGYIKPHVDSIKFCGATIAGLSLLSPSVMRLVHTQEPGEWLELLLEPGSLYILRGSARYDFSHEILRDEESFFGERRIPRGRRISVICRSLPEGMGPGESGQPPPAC
Excerpt: (§1) K562 cells were also purchased from DSMZ (Braunschweig, Germany).
(§2) Table 5: Peptide elution off the LC system
(§3) Seventeen different dioxygenases were identified.

PLOD2 = molecular target: T2, PLOD2 (Homo sapiens, UniProt O00469); assay: as above; conditions: 100 µM free compound A, read-out: Fold change versus DMSO control
T2 construct: capturing and identification of dioxygenases from nuclear lysates of three different cell lines; endogenous in cells; host or cells: K-562, HL-60 and Jurkat nuclear lysates
T2 sequence (O00469 26-737): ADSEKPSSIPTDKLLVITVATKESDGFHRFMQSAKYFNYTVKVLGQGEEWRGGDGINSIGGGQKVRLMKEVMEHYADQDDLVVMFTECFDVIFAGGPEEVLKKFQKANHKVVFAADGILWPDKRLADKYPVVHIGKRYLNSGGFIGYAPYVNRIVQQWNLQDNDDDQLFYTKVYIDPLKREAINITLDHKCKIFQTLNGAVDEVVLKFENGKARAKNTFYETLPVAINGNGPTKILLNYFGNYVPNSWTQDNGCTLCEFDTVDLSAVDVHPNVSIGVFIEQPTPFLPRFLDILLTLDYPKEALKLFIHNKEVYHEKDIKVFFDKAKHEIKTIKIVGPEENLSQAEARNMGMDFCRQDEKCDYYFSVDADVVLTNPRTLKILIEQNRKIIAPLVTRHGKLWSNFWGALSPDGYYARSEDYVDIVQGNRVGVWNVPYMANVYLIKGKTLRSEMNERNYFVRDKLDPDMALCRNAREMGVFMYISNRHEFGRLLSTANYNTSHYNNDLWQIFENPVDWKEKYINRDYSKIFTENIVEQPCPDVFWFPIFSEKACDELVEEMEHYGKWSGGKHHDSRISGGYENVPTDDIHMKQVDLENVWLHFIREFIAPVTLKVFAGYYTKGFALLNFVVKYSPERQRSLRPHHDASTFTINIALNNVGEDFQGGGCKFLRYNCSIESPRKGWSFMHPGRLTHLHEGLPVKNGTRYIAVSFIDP
Excerpt: as §1, §2, §3

## O=C(O)CNC(=O)C1C(=O)OC2(CCNCC2)OC1=O [compound A, 2-(2,4-dioxo-1,5-dioxa-9-azaspiro[5.5]undecane-3-carboxamido)acetic acid hydrochloride]
ALKBH7; HL-60 nuclear lysate
  remaining binding at 100 µM: 82%
ALKBH7; Jurkat nuclear lysate
  remaining binding at 100 µM: 55%
ALKBH7; K-562 nuclear lysate
  remaining binding at 100 µM: 54%
PLOD2; HL-60 nuclear lysate
  remaining binding at 100 µM: 86%
PLOD2; Jurkat nuclear lysate
  remaining binding at 100 µM: 109%
PLOD2; K-562 nuclear lysate
  remaining binding at 100 µM: 54%
